# “Also recorded” adds a separate entry of the source.
# Legend:
# [1] = tested on: Thioacetamide (TAA)-Induced Fibrosis; assay: Thioacetamide (TAA)-induced fibrosis, model for hepatic cirrhosis; type: in vivo; conditions: 5 mg/kg co-administered with TAA, 10 weeks, Wistar rats
# Experimental: Liver fibrosis was induces in Wistar rats by intraperitoneal injections of TAA […] body weight) twice per week during 10 weeks. I.p. application of TAA results in hepatic centrolobular necrosis, elevated transaminase activity and robust liver fibrosis. Treatment groups further included co-administration of Aramchol (1 or 5 mg/kg orally) or obaticholic acid (OCA, 5 mg/kg). A control group of saline-treated rats (in the absence of TAA administration) was further included. Rats were then sacrificed, and livers were observed macroscopically for signs of cirrhosis and necrotic lesions, and microscopically, following Masson Goldner staining. The fibrosis score, calculated at a scale of 0-4, was determined for each sample, wherein 0 indicates no fibrosis and 4 indicates advanced fibrosis and cirrhosis.
# COL1A1 = COL1A1 expression in LX-2 human hepatic stellate cells; type: cell-based; conditions: LX-2 cells, Aramchol 10 mM, 24 hours, RNA
# Experimental: (§1) LX2 cells (150.000 cells per well) were plated in DMEM media containing antibiotics, glutamine and bovine fetal serum. After 24 hours incubation, media was changed to 0% serum and incubated for an additional period of 16 hours. Then, Aramchol (10 mM) was added and 24 hours later RNA was extracted with Trizol.
# PPAR-γ = PPAR-γ expression in LX-2 human hepatic stellate cells; type: cell-based; conditions: LX-2 cells, Aramchol 10 mM, 24 hours, RNA
# Experimental: as §1
# [2] = tested on: LX-2 human hepatic stellate cells; assay: Collagen production from LX-2 human hepatic stellate cells; type: cell-based; conditions: LX-2 cells, relative to a DMSO control
# [3] = tested on: 0.1 MCD diet mouse model of NASH; assay: 0.1% methionine- and choline-deficient (0.1 MCD) diet mouse model of NASH; type: in vivo, C57B1/6 mice; conditions: 5 mg/Kg/day orally by gavage, 0.1 MCD-fed mice
# Source text: The study described below investigates the mechanism of action of Aramchol and its potential effect on fibrosis using the 0.1% methionine- and choline-deficient (0.1 MCD) diet mouse model of NASH.
# C57B1/6 were fed the Methionine and Choline Deficient (MCD) and control diet and were sacrificed after 4 weeks. The MCD diet induces aminotransferase elevation and changes in hepatic histological features, characterized by steatosis, local inflammation, hepatocyte necrosis and fibrosis. These changes occur rapidly and are morphologically similar to those observed in human NASH. In this study the MCD diet contained 0.1% methionine to minimize and stabilize weight loss. At the end of the second week, after verification of established NASH, 0.1 MCD-fed mice were treated orally by gavage with Aramchol (5 mg/Kg/day) or vehicle (n=10, each condition). Control diet-fed mice were also treated with vehicle for same duration (n=10). At the end of the experiment, blood and liver samples were obtained. A diagram of the experimental design is shown below: […]
smiles,measurement,setting,value
"CCCCCCCCCCCCCCCCCCCC(=O)N[C@H]1CCC2(C)C(CC(O)C3C2C[C@H](O)C2(C)C(C(C)CCC(=O)O)CCC32)C1 (stereo in doubt) [Aramchol, 3β-arachidylamido-7α, 12α-dihydroxy-5β-cholan-24-oic acid]",TAA induced fibrosis,[1],significantly prevented; also recorded: significantly inhibited
same,collagen distribution in the tissue (FIG. 2),[1],reduced significantly
same,"development of necrosis and cirrhosis (macroscopic, FIG. 1)",[1],reduced significantly; also recorded: significantly inhibited
same,"fibrotic score (Masson Goldner staining, scale 0-4, FIG. 2)",[1],reduced significantly
same,COL1A1 expression,COL1A1,significantly reduced
same,PPARγ expression,PPAR-γ,up-regulation
same,collagen production,[2],significantly down regulates
same,FA(16:1)/FA(16:0) ratio,[3],marked decrease
same,SCD1 activity,[3],reduced
same,SCD1 expression,[3],marked decrease
same,content of total oxFA including oxLA,[3],marked reduction
same,hepatic content of diglycerides (DG) and TG,[3],reduction
same,oxidative stress,[3],improved
same,total content of monounsaturated FA (MUFA),[3],marked decrease
same,fibrosis in the liver (sirius red),[3]; from end of week 2 to week 4,significantly down regulates/normalizes; also recorded: reduction
same,infiltration and activation status of macrophages in the liver (F4/80 and CD64),[3]; from end of week 2 to week 4,significantly down regulates/normalizes; also recorded: reduction
same,steatosis in the liver (Sudan III),[3]; from end of week 2 to week 4,significantly down regulates; also recorded: reduction
same,GSH/GSSG ratio,[3]; liver,elevates; also recorded: normalization
same,glutathione,[3]; liver,significantly up regulates
same,collagen in the liver,[3]; liver extract,significantly down regulates
